“And” between values parts separate entries of the source, which are not always exact repeats. Equal entries are not always repeated. Where two headings read alike, the source gives them in different places.
Legend:
Campylobacter jejuni = test: Bactericidal effect in Bolton Broth at different pH; type: cell-based; conditions: sodium salt used; 0, 10, 20 mM in Bolton Broth; pH 5.6, 7.2, 8.2
Experimental: The bactericidal effect of 2-nitroethane against Campylobacter jejuni was examined in vitro following substantially the same assay as described in the first experiment of Example 1 except Bolton Broth was utilized rather than TSB. In this experiment nitroethane was added to the Bolton Broth medium in amounts to give 0, 10, and 20 mM final concentrations, and trials were conducted in the media at different pH (5.6, 7.2, and 8.2).
Because 2-nitroethane is somewhat volatile, the sodium salt of the compound was prepared and used in this experiment. The salt was prepared using the process described by Majak et al. (1986, J. Anim. Sci., 62:1072–1080, the contents of which are incorporated by reference herein).

S. Typhimurium [1] = test: Specific growth rate in tryptic soy broth (A600); type: cell-based, Salmonella Typhimurium
Experimental: (§1) The bactericidal effect of 2-nitropropanol and nitroethanol were examined in vitro on several pathogenic bacteria including Salmonella Typhimurium, Escherichia coli O157:H7, Campylobacter jejuni, and Enterococcus faecalis. For an initial in vitro study 2-nitropropanol or nitroethanol were added to tryptic soy broth (TSB) medium in amounts to give 0, 2.5, 5, and 10 mM final concentration. Cultures were inoculated in TSB and incubated at 37° C. Specific growth rates (h^−1) were calculated by measuring optical density (A600) with spectrophotometer.

E. coli O157:H7 = test: Specific growth rate in tryptic soy broth (A600); type: cell-based, Escherichia coli O157:H7; conditions: 2.5 mM and higher concentrations in TSB, 37° C.
Experimental: as §1

E. faecalis = test: Specific growth rate in tryptic soy broth (A600); type: cell-based, Enterococcus faecalis; conditions: 10 mM in TSB, 37° C.
Experimental: as §1

S. Typhimurium [2] = test: pH effect: populations (CFU/ml) in TSB adjusted to different pH, enumerated on TSA; type: cell-based, Salmonella Typhimurium; conditions: 37° C.
Experimental: In order to observe the pH effect on this 2-nitropropanol, S. Typhimurium was inoculated into TSB medium adjusted to different pH (5.6, 7.2, and 8.0) with 2-nitropropanol (0, 2.5, and 10 mM final concentration) and incubated at 37° C. Populations of S. Typhimurium were determined (CFU/ml) by enumerating on tryptic soy agar (TSA) at 3, 6, and 24 h. […] However, S. Typhimurium was totally inactivated (more than 5 log reductions) at 10 mM 2-nitropropanol regardless of pH (FIG. 2).

C. jejuni = test: Bactericidal effect in Campylobacter enrichment broth, direct plating and enrichment; type: cell-based, Campylobacter jejuni; conditions: 48 h, pH 5.6 and 7.0, 42° C.
Experimental: The bactericidal effect against C. jejuni was also determined in vitro. Cultures were inoculated into Campylobacter enrichment broth containing 2-nitropropanol at 0, 5, 10, and 20 mM of final and incubated at 42° C.

S. Typhimurium [3] = type: cell-based, Salmonella Typhimurium; conditions: 10 mM
Experimental: Another experiment was conducted to evaluate the bactericidal effect of 2-nitropropanol against S. Typhimurium in buffered rumen and fecal fluid containing viable populations of endogenous anaerobes. Briefly, ruminal contents and feces were retrieved and strained. Both collected fluids were transferred to laboratory and mixed with anoxic phosphate buffer (pH 6.8). Antibiotic-marked (25 μg novobiocin/ml and 20 μg/ml of nalidixic acid resistant) (NN)S. Typhimurium cultures were inoculated into these mixtures supplemented with 2-nitropropanol at various concentrations (0, 2.5, and 10 mM of final). Those inoculated tubes were incubated at 37° C. and populations were monitored at different sampling time (0, 3, 6, and 24 h) by direct plating onto brilliant green agar (BGA) containing NN.

Salmonella Typhimurium [4] = type: in vivo, broiler chicks; conditions: oral gavage, 24 h, Experiment 1
Experimental: The bactericidal effect of 2-nitropropanol on Salmonella typhimurium was determined in vivo. The in vivo study was conducted using 7-day-old chick experimentally infected with S. Typhimurium. In experiment 1, chicks were orally challenged with 10^6 cfu of NN-resistant strain of S. Typhimurium. Chicks were divided into four groups; control, 1 (13 mg 2-nitropropanol/bird), 5 (65 mg 2-nitropropanol/bird) and 10×(130 mg 2-nitropropanol/bird). Treatments were administered via oral gavage. After 24 h, cecal contents were aseptically removed and subjected to bacterial analysis.

Salmonella Typhimurium [5] = test: Cecal populations in experimentally challenged broiler chicks, experiment 2; type: in vivo; conditions: oral gavage
Experimental: Significant (P<0.05) log reductions occurred in group administered 1×(13 mg/bird) dose for both 24 and 48 h duration compared to untreated control.

Listeria monocytogenes = test: Bactericidal effect in Tryptic Soy Broth at different pH; type: cell-based; conditions: pH 5.6, 7.2, 8.2, 37° C.
Experimental: The bactericidal effect of 2-nitropropanol against Listeria monocytogenes was examined in vitro following the same assay as described in the first and second experiments of Example 1. Trials were conducted in the media at different pH (5.6, 7.2, and 8.2).

## CC[N+](=O)[O-] [2-nitroethane]
Campylobacter jejuni
  pH dependence of bactericidal effect against Campylobacter jejuni: increased at alkaline pH

## O=[N+]([O-])CCO [2-nitroethanol]
S. Typhimurium [1]
  growth of S. Typhimurium (specific growth rate): largely prohibited
E. coli O157:H7
  growth of E. coli O157:H7 (specific growth rate): largely prohibited

## CC(CO)[N+](=O)[O-] (stereo not shown) [2-nitropropanol]
S. Typhimurium [1]; 2.5 mM and higher concentrations in TSB, 37° C.
  growth of S. Typhimurium (specific growth rate): largely prohibited
E. coli O157:H7
  growth of E. coli O157:H7 (specific growth rate): largely prohibited
E. faecalis
  growth of E. faecalis (specific growth rate): markedly inhibited
S. Typhimurium [2]; 2.5 mM, pH 5.6, after 24 h
  reduction of S. Typhimurium cells: approximately 3 log
S. Typhimurium [2]; 10 mM, regardless of pH (5.6, 7.2, 8.0)
  reduction of S. Typhimurium cells (totally inactivated): more than 5 log
C. jejuni; 10 mM
  inactivation of C. jejuni cultures: completely inactivated
C. jejuni; 20 mM
  inactivation of C. jejuni cultures: completely inactivated
S. Typhimurium [3]; fecal fluid in anoxic phosphate buffer pH 6.8, 37° C.
  reductions of Salmonella populations compared to controls: 2–3 log
S. Typhimurium [3]; ruminal fluid in anoxic phosphate buffer pH 6.8, 37° C.
  reductions of Salmonella populations compared to controls: 2–3 log
Salmonella Typhimurium [4]; 1× = 13 mg per bird
  Mean log CFU/g of cecal content (standard deviation): 3.65±2.01 log CFU/g and 3.65 (2.01) B log CFU/g
Salmonella Typhimurium [4]; 5× = 65 mg per bird
  Mean log CFU/g of cecal content (standard deviation): 3.39±2.42 log CFU/g and 3.39 (2.42) B log CFU/g
Salmonella Typhimurium [4]; 10× = 130 mg per bird
  Mean log CFU/g of cecal content (standard deviation): 3.47 ± 1.55 log CFU/g and 3.46 (1.55) B log CFU/g
Salmonella Typhimurium [5]; 0.5× = 6.5 mg per bird, 24 h
  Salmonella Typhimurium, Mean log CFU/g of cecal content (standard deviation): 4.19 (2.53) A log CFU/g
Salmonella Typhimurium [5]; 0.5× = 6.5 mg per bird, 48 h
  Salmonella Typhimurium, Mean log CFU/g of cecal content (standard deviation): 3.84 (2.69) AB log CFU/g
Salmonella Typhimurium [5]; 0.5× = 6.5 mg per bird, Combined 24 and 48 h
  Salmonella Typhimurium, Mean log CFU/g of cecal content (standard deviation): 4.01 (2.59) A log CFU/g
Salmonella Typhimurium [5]; 1× = 13 mg per bird, 24 h
  Salmonella Typhimurium, Mean log CFU/g of cecal content (standard deviation): 2.58 (2.10) B log CFU/g
Salmonella Typhimurium [5]; 1× = 13 mg per bird, 48 h
  Salmonella Typhimurium, Mean log CFU/g of cecal content (standard deviation): 2.88 (2.78) B log CFU/g
Salmonella Typhimurium [5]; 1× = 13 mg per bird, Combined 24 and 48 h
  Salmonella Typhimurium, Mean log CFU/g of cecal content (standard deviation): 2.73±2.45 log CFU/g and 2.73 (2.45) B log CFU/g
Listeria monocytogenes
  pH dependence of bactericidal effect against Listeria monocytogenes: enhanced in an acidic or alkaline environment, but is somewhat reduced at neutral pH
